Laboratory results as given in ChEMBL document CHEMBL1201862, “PubChem BioAssay data set” (2004).
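Exposure lasted 48 hours, with cells grown in 96-well plates and compounds tested at five concentrations. Abbreviation: GI50, concentration required for 50% inhibition of growth.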 Calls of active or inactive are those of the source. Rule as the data show it: active = GI50 up to about 1.1 µM and inactive = higher.

Columns and labels:
Assay in all cases: DTP human tumour cell line panel, 48 h
SK-MEL-2 = test system: SK-MEL-2
UO-31 = test system: UO-31
SF-295 = test system: SF-295
COLO 205 = test system: COLO 205
U-251 = test system: U-251
LOX IMVI = test system: LOX IMVI
SR = test system: SR
T47D = test system: T47D
OVCAR-5 = test system: OVCAR-5
NCI-H460 = test system: NCI-H460
ACHN = test system: ACHN
HCT-116 = test system: HCT-116
HCC 2998 = test system: HCC 2998
SK-MEL-28 = test system: SK-MEL-28
HCT-15 = test system: HCT-15
M19-MEL = test system: M19-MEL
M14 = test system: M14
SW-620 = test system: SW-620
KM12 = test system: KM12
SN12C = test system: SN12C

SMILES | GI50 (SK-MEL-2) | GI50 (UO-31) | GI50 (SF-295) | GI50 (COLO 205) | GI50 (U-251) | GI50 (LOX IMVI) | GI50 (SR) | GI50 (T47D) | GI50 (OVCAR-5) | GI50 (NCI-H460) | GI50 (ACHN) | GI50 (HCT-116) | GI50 (HCC 2998) | GI50 (SK-MEL-28) | GI50 (HCT-15) [µM] | GI50 (M19-MEL) | GI50 (M14) | GI50 (SW-620) | GI50 (KM12) | GI50 (SN12C)
NC(=O)C(=O)n1ncc(Cl)c(Cl)c1=O | 23.8 µM (inactive) | 32.7 µM (inactive) | 13.6 µM (inactive) | > 32.9 µM (inactive) | > 40.7 µM (inactive) | 22.4 µM (inactive) | 19.2 µM (inactive) | > 100 µM (inactive) | 37.5 µM (inactive) | 74.8 µM (inactive) | 24.4 µM (inactive) | 29.1 µM (inactive) | 25.8 µM (inactive) | 23.5 µM (inactive) | > 46.9 | 24.7 µM (inactive) | 28.8 µM (inactive) | 13.3 µM (inactive) | 34.1 µM (inactive) | 18.6 µM (inactive)
[N-]=[N+]=NC(c1cn(C2CC(O)C(CO)O2)c(=O)[nH]c1=O)C(Br)Br (centres undefined) | > 100 µM (inactive) | > 100 µM (inactive) | > 100 µM (inactive) | > 100 µM (inactive) | > 100 µM (inactive) | > 100 µM (inactive) | > 100 µM (inactive) | – | > 100 µM (inactive) | > 100 µM (inactive) | > 100 µM (inactive) | > 100 µM (inactive) | > 100 µM (inactive) | > 100 µM (inactive) | > 100 | > 100 µM (inactive) | > 100 µM (inactive) | > 100 µM (inactive) | > 100 µM (inactive) | > 100 µM (inactive)
CC1(C)OCC(CO)(Nc2nc(N3CC3)nc(N3CC3)n2)CO1 | 19 µM (inactive) | 8.95 µM (inactive) | 2.96 µM (inactive) | 20.3 µM (inactive) | 4.04 µM (inactive) | 5.52 µM (inactive) | 0.483 µM (active) | 1.49 µM (inactive) | 20 µM (inactive) | 0.38 µM (active) | 1.42 µM (inactive) | 1.85 µM (inactive) | 16.9 µM (inactive) | 19.5 µM (inactive) | 15.2 | 13.9 µM (inactive) | 9.2 µM (inactive) | 14.5 µM (inactive) | 16.3 µM (inactive) | 7.71 µM (inactive)
